Type in all cases: cell-based
One test concerns the target T1, human TLR8 (Homo sapiens, UniProt Q9NR97).
T1 construct: host or cells: HEK-Blue cells
T1 sequence (Q9NR97 27-1041): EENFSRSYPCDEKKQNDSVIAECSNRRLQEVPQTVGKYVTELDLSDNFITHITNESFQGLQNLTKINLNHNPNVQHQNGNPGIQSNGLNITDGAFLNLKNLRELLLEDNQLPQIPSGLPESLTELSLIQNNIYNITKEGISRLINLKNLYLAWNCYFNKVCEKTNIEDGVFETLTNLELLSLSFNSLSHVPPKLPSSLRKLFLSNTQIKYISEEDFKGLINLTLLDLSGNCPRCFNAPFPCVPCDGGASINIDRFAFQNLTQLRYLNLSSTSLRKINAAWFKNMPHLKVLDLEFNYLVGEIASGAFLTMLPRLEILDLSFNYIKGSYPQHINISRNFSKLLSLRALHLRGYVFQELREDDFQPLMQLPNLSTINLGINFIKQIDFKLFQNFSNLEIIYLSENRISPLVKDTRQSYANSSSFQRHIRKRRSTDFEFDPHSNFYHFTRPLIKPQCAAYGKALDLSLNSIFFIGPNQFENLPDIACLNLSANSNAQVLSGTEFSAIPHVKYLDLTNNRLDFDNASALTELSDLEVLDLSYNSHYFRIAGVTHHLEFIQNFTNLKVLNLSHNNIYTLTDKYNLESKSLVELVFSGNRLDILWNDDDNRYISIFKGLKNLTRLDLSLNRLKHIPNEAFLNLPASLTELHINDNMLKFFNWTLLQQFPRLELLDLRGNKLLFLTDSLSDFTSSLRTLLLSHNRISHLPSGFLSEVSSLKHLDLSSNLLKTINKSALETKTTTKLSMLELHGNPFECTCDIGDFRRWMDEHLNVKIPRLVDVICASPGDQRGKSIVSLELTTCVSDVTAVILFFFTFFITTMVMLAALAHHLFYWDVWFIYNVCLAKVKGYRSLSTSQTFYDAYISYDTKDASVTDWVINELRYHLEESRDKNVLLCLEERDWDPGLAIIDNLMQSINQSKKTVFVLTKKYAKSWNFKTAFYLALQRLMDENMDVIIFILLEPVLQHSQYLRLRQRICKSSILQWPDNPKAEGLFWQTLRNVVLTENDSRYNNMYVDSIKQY
Kind of test: TLR8 inhibition reporter assay (HEK-Blue cells, SEAP reporter, R848 stimulation). The conditions noted are these: HEK-Blue cells overexpressing human TLR8, SEAP reporter, R848 15.9 μM; read-out: TLR8 IC50. In a few lines: (§1)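 Compound treatment: 30 min, RT, 0.05 nM–50 μM final. Agonist: TLR7 gardiquimod 7.5 μM; TLR8 R848 15.9 μM; TLR9 ODN2006 5 nM. Incubation 22 h, 37 °C, 5% CO2. Readout SEAP, HEK-Blue Detection.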
(In general: A reporter such as luciferase makes a cellular process visible.)

In the next test the target is T2, human TLR7 (Homo sapiens, UniProt Q9NYK1).
T2 construct: host or cells: HEK-Blue cells
T2 sequence (Q9NYK1 27-1049): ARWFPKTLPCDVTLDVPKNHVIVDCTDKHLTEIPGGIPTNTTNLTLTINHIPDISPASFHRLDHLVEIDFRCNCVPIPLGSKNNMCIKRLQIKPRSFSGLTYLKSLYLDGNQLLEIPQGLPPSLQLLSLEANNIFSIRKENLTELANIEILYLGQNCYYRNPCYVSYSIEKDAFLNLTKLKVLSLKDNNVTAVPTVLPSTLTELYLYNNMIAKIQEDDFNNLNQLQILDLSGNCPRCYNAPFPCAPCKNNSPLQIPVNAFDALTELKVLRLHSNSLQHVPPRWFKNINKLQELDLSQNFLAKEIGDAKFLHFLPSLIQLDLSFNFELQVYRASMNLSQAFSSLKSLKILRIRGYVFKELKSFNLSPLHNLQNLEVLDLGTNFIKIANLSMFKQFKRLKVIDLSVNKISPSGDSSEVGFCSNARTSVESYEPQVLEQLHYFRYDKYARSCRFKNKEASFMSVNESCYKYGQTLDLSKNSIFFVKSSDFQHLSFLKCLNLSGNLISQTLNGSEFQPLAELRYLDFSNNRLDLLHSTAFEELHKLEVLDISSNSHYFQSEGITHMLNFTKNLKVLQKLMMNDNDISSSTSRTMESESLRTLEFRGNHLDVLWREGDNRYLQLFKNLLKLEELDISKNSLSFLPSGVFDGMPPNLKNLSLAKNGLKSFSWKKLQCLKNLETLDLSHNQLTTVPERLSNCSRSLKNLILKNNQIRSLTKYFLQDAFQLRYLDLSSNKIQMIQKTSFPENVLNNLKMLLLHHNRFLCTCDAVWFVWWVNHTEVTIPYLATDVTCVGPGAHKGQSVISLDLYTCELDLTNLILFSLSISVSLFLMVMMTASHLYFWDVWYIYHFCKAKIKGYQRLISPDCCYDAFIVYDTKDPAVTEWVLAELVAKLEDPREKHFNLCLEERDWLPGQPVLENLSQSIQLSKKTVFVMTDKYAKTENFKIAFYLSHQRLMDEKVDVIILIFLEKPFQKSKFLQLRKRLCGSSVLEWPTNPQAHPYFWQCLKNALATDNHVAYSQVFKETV
The test can be described thus: TLR7 inhibition reporter assay (HEK-Blue cells, SEAP reporter, gardiquimod stimulation). The conditions noted are these: HEK-Blue cells overexpressing human TLR7, SEAP reporter, gardiquimod 7.5 μM; read-out: TLR7 IC50. In a few lines: as §1

Another test concerns the target T3, human TLR9 (Homo sapiens, UniProt Q9NR96).
T3 construct: host or cells: HEK-Blue cells
T3 sequence (Q9NR96 26-1032): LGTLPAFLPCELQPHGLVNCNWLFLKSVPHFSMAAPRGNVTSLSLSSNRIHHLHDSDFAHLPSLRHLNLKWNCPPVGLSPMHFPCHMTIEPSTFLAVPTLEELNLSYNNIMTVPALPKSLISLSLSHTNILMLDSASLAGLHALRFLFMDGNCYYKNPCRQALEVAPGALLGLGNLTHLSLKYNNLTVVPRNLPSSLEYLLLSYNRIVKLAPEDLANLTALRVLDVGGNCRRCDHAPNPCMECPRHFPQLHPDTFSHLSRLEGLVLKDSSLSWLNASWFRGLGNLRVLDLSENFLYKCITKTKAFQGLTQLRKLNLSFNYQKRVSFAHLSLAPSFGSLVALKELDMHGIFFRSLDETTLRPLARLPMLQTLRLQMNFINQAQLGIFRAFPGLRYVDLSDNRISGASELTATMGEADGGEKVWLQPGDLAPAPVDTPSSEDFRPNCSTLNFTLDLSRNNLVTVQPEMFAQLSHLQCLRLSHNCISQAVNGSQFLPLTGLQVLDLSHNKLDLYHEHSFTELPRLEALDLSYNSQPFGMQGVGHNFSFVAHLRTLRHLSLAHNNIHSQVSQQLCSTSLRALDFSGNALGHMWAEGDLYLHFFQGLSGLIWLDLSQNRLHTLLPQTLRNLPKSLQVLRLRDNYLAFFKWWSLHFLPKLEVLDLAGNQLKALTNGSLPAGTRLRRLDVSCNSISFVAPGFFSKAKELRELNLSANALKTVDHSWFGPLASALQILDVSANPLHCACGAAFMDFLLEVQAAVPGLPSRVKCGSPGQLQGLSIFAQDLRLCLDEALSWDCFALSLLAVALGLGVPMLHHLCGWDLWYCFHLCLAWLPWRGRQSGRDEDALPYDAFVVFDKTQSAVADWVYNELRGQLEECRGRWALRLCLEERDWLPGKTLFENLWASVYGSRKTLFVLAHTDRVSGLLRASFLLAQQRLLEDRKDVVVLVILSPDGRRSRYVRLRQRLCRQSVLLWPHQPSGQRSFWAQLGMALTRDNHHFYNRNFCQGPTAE
The test can be described thus: TLR9 inhibition reporter assay (HEK-Blue cells, SEAP reporter, ODN2006 stimulation). Conditions: HEK-Blue cells overexpressing human TLR9, SEAP reporter, ODN2006 5 nM. In a few lines:
as §1

What is called IC50 is the point on the concentration scale where inhibition reaches its midpoint.

For `Cc1c(-c2[nH]c3sc(C4CCC(NCC(=O)N(C)C)CC4)nc3c2C(C)C)cn2ncnc2c1C` (single isomer, unassigned) [Example 204, 2-((4-(5-(7,8-dimethyl-[1,2,4]triazolo[1,5-a]pyridin-6-yl)-6-isopropyl-4H-pyrrolo[3,2-d]thiazol-2-yl)cyclohexyl)amino)-N,N-dimethylacetamide], the IC50 on human TLR8 is 0.63 nM; on human TLR7 it was 1.5 nM; against human TLR9, 17800 nM.
The like results for `Cc1c(-c2[nH]c3sc(C4CCC(NCC(=O)N(C)C)CC4)nc3c2C(C)C)cn2ncnc2c1C` (single isomer, unassigned) [Example 205, 2-((4-(5-(7,8-dimethyl-[1,2,4]triazolo[1,5-a]pyridin-6-yl)-6-isopropyl-4H-pyrrolo[3,2-d]thiazol-2-yl)cyclohexyl)amino)-N,N-dimethylacetamide] were, in that order, 2.33 nM, 6.66 nM and 21500 nM.
The like results for `CNC(=O)CNC1CCC(c2nc3c(C(C)C)c(-c4cn5ncnc5c(C)c4C)[nH]c3s2)CC1` (single isomer, unassigned) [Example 208, 2-((4-(5-(7,8-dimethyl-[1,2,4]triazolo[1,5-a]pyridin-6-yl)-6-isopropyl-4H-pyrrolo[3,2-d]thiazol-2-yl)cyclohexyl)amino)-N-methylacetamide] were, in that order, 0.52 nM, 1 nM and 20000 nM.
For `CNC(=O)CNC1CCC(c2nc3c(C(C)C)c(-c4cn5ncnc5c(C)c4C)[nH]c3s2)CC1` (single isomer, unassigned) [Example 209, 2-((4-(5-(7,8-dimethyl-[1,2,4]triazolo[1,5-a]pyridin-6-yl)-6-isopropyl-4H-pyrrolo[3,2-d]thiazol-2-yl)cyclohexyl)amino)-N-methylacetamide], the values for the IC50 at human TLR8, on human TLR7 and against human TLR9 were 0.14 nM, 0.32 nM and 4170 nM, respectively.
As for `Cc1c(-c2[nH]c3sc(C4CCC(N5CCOCC5)CC4)nc3c2C(C)C)cn2ncnc2c1C` (single isomer, unassigned) [Example 212, 4-(4-(5-(7,8-dimethyl-[1,2,4]triazolo[1,5-a]pyridin-6-yl)-6-isopropyl-4H-pyrrolo[3,2-d]thiazol-2-yl)cyclohexyl) morpholine], the IC50 at human TLR8 worked out at 0.63 nM; at human TLR7, 0.62 nM; against human TLR9, 7390 nM.
In the case of `Cc1c(-c2[nH]c3sc(C4CCC(N5CCOCC5)CC4)nc3c2C(C)C)cn2ncnc2c1C` (single isomer, unassigned) [Example 213, 4-(4-(5-(7,8-dimethyl-[1,2,4]triazolo[1,5-a]pyridin-6-yl)-6-isopropyl-4H-pyrrolo[3,2-d]thiazol-2-yl)cyclohexyl) morpholine], the values for the IC50 at human TLR8, on human TLR7 and against human TLR9 were 3.41 nM, 4.64 nM and 25500 nM, respectively.
Take `Cc1c(-c2[nH]c3sc(C4CCC(NCC5(S(C)(=O)=O)CC5)CC4)nc3c2C(C)C)cn2ncnc2c1C` (single isomer, unassigned) [Example 214, 4-(5-(7,8-dimethyl-[1,2,4]triazolo[1,5-a]pyridin-6-yl)-6-isopropyl-4H-pyrrolo[3,2-d]thiazol-2-yl)-N-((1-(methylsulfonyl)cyclopropyl)methyl) cyclohexan-1-amine]: the IC50 amounted to 0.39 nM at human TLR8, 1.37 nM at human TLR7 and 10300 nM at human TLR9.
With `Cc1c(-c2[nH]c3sc(C4CCC(NCC5(S(C)(=O)=O)CC5)CC4)nc3c2C(C)C)cn2ncnc2c1C` (single isomer, unassigned) [Example 215, 4-(5-(7,8-dimethyl-[1,2,4]triazolo[1,5-a]pyridin-6-yl)-6-isopropyl-4H-pyrrolo[3,2-d]thiazol-2-yl)-N-((1-(methylsulfonyl)cyclopropyl)methyl) cyclohexan-1-amine], the 50% inhibitory concentration (IC50) was 6 nM on human TLR8, 2.3 nM at human TLR7 and 15000 nM on human TLR9.
The like results for `Cc1c(-c2[nH]c3sc(C4CCC(N5CCC5)CC4)nc3c2C(C)C)cn2ncnc2c1C` (single isomer, unassigned) [Example 216, 2-(4-(azetidin-1-yl)cyclohexyl)-5-(7,8-dimethyl-[1,2,4]triazolo[1,5-a]pyridin-6-yl)-6-isopropyl-4H-pyrrolo[3,2-d]thiazole] were, in that order, 1.02 nM, 0.72 nM and 6520 nM.
The like results for `Cc1c(-c2[nH]c3sc(C4CCC(N5CCC5)CC4)nc3c2C(C)C)cn2ncnc2c1C` (single isomer, unassigned) [Example 217, 2-(4-(azetidin-1-yl)cyclohexyl)-5-(7,8-dimethyl-[1,2,4]triazolo[1,5-a]pyridin-6-yl)-6-isopropyl-4H-pyrrolo[3,2-d]thiazole] were, in that order, 5.3 nM, 2.41 nM and 5870 nM.

The values are drawn from patent publication US20230139171A1 (SITA Information Networking Computing UK Limited, priority 2019, published 2023).
